Experimental data from patent publication US20010056084A1, “MGluR5 antagonists for the treatment of pain and anxiety” (priority 1998, published 2001).

Key:
naive rat hind paw = naive rat hind paw test of mechanical hyperalgesia (Randall and Selitto), glutamate receptor agonists; type: in vivo
[1] = test system: DHPG-induced hyperalgesia in the rat hind paw; assay: DHPG-induced hyperalgesia in the rat hind paw (Randall and Selitto), co-administration; type: in vivo; details: co-administration with DHPG to the rat hind paw
rat = details: intrathecally administered; cited from earlier work

| Structure (SMILES) | rank order of potency as hyperalgesic agents (naive rat hind paw) | inhibition of DHPG-induced hyperalgesia [1] | spontaneous nociceptive responses (rat) |
| --- | --- | --- | --- |
| NC1(C(=O)O)CCC2C(C(=O)O)C21 (racemic) [LY 314582, (±)-2-aminobicyclo[3.1.0]hexane-2,6-dicarboxylic acid] | (LY 314582)>L-4-phosphono-2-amino-butiric acid (L-AP4) |  |  |
| N[C@H](C(=O)O)c1ccc(C(=O)O)cc1 [(S)-4C-PG, (S)-4-carboxyphenylglycine] |  | limited effect |  |
| Cc1o[nH]c(=O)c1CC(N)C(=O)O (centres unmarked) [AMPA] | AMPA>(±)-2-aminobicyclo[3.1.0]hexane-2,6-dicarboxylic acid (LY 314582) |  |  |
| NC(C(=O)O)c1cc(O)cc(O)c1 (centres unmarked) [DHPG, 3,5-dihydroxyphenyiglycine] | DHPG>NMDA |  | induced an increase in spontaneous nocicepfive responses |
| N[C@@H](CCP(=O)(O)O)C(=O)O [L-AP4, L-4-phosphono-2-amino-butiric acid] | >L-4-phosphono-2-amino-butiric acid (L-AP4) |  |  |
| CN[C@H](CC(=O)O)C(=O)O [NMDA] | NMDA>AMPA |  |  |
| N[C@@H](CCC(=O)O)C(=O)O [glutamate] | glutamate ˜2-chloro-3-hydroxyphenylglycine (CHPG) |  |  |
